Experimental data reported in ChEMBL document CHEMBL3507680, “University of Dundee, Gates Library screen for HepG2 cell viability”.

Assay: Human HepG2 cell viability assay in 384 well format
Format: toxicity, cell-based
Design: dose 125 nL, time 70.5 hour; cytotoxicity at 70.5 h: concentration not given beside the values
Conditions: HepG2 cells, read-out: Inhibition

SMILES	cytotoxicity at 70.5 h
O=C(NCCc1cc(=O)[nH]cn1)c1[nH]nc2c1CCCC2	-5.79%
CCOC(C(=O)N1CCn2c(C)nnc2C1)c1ccccc1 (configuration not stated)	-11.7%
Cc1cnn(CC(C)NCc2cccnc2)c1 (configuration not stated)	-5.07%
O=C(Cn1ccc2ccccc21)NC[C@@H]1CCCN2CCCC[C@H]12	-10.1%
CC(C)Oc1ccc(CNC(=O)CN(C)S(C)(=O)=O)cc1F	-6.43%
O=C(CN1CCCC1c1noc(C2CC2)n1)N1CCc2ccccc21 (configuration not stated)	-7.43%
Cc1n[nH]c(C2CN(CC(=O)NCc3cccs3)CCO2)n1 (configuration not stated)	-86.1%
CN1CCCc2sc(C(=O)NC3CC3)nc21	-1.86%
N#Cc1ccc(CNCCn2cccn2)c(F)c1	13.7%
O=C(O)[C@H]1CCCN1CCOc1cccc(Cl)c1	-5.33%
Cc1nc(NC2CCS(=O)(=O)CC2)cc(C2CCCNC2)n1 (configuration not stated)	-7.39%
CC(C)CCN1C[C@H]2C[C@H](C(=O)NCC(C)C)[C@@H](C1)O2	-2.84%
O=C(c1ccco1)N1CCO[C@@H]2CN(c3ncc(F)cn3)CC[C@@H]2C1	-5.01%
COCCc1noc(CN2CCCC(Cn3nc(C)nc3C)C2)n1 (configuration not stated)	2.6%
CC(C(=O)NCc1ccc(N2CCN(C)CC2)nc1)n1cccn1 (configuration not stated)	-6.16%
Cc1cc(C)c(C(=O)N2CCOC(CCN(C)C)C2)o1 (configuration not stated)	-14.2%
O=C(c1ccoc1)N1CCCCC1c1nc[nH]n1 (configuration not stated)	-1.78%
CN1CCCC(c2ccnc(C(=O)NC3CC3)c2)C1 (configuration not stated)	-3.68%
CCCn1cnc2c1CN(C(=O)c1ccc(F)cc1)[C@H](C(=O)OC)C2	-7.42%
Cc1cc(F)ccc1S(=O)(=O)N(C)CC(N)=O	-6.18%
Cc1ccc(C(=O)N2C[C@H](N3CCOCC3)[C@@H]3OCCC[C@@H]32)cn1	-9.11%

SMILES	cytotoxicity at 70.5 h
CS(=O)(=O)CCOCCNc1ccc2ccc(F)cc2n1	-3.21%
CN(Cc1ccsc1)C(=O)CN1CCCCC1Cn1cccn1 (configuration not stated)	-10%
CC(C)c1nnc(CN2CCCc3ccc(S(N)(=O)=O)cc32)o1	-0.377%
Cc1noc(C)c1CNC(=O)N1CCC(CN2CCC(C)CC2)CC1	-2.8%
CC(=O)N1CCCC2(C1)CN(C(=O)c1ccncc1)CCO2 (configuration not stated)	-15.7%
Cc1cc(NC(=O)Cn2cc(C#N)c(=O)c3cc(Br)ccc32)no1	0.537%
Cc1cccc(CN2CC3(CCN(Cc4ccoc4)CC3)OCC2=O)n1	17.7%
COc1c(C2CCCN2C(=O)c2c[nH]c3ncccc23)c(C)nn1C (configuration not stated)	-5.62%
Fc1ccccc1-c1cccc(C2CCCN(C3CCOCC3)C2)n1 (configuration not stated)	-7.34%
O=C1NCCCc2[nH]c(-c3nc(C4CCCCC4)no3)nc21	8.47%
COc1ccccc1S(=O)(=O)Nc1cnc(O)cc1C	-10.5%
Cc1noc(C(C)Nc2ccc3oc(=O)[nH]c3c2)n1 (configuration not stated)	-0.467%
O=C(NCC1(O)CCc2ccccc21)Nc1ccc2c(c1)OCO2 (configuration not stated)	-3.18%
c1cncc(OC[C@@]23CCC[C@@H]2CN(CC2CCOCC2)C3)c1	-1.42%
Cc1noc(C)c1CN1C(=O)[C@H]2CC[C@@H]1CN(Cc1cccnc1N)C2	16.1%
COCCN1CCC(CN(Cc2ccncc2)C2CCCCC2)CC1	-6.59%
c1ccc(-c2noc(CCCN3CCCC3Cn3cncn3)n2)cc1 (configuration not stated)	-13.4%
O=C1OCCN1c1cccc(CNCc2cc(F)ccc2F)c1	22.6%
CCN(CCCc1ccccc1C)S(C)(=O)=O	-3.45%
CSCCC(NC(N)=O)C(=O)N1CCC(Cc2ccccc2)CC1 (configuration not stated)	-3.12%
CCS(=O)(=O)NC[C@]12COC[C@H]1CN(Cc1ccncc1)C2	-5.02%

SMILES	cytotoxicity at 70.5 h
CC1=N[C@@]2(CC[C@@H]3CN(Cc4ccccc4F)C[C@@H]32)C(=O)N1C	-20%
COc1ccccc1N1CC(NC(=O)Cn2cc(C(C)C)nn2)CC1=O (configuration not stated)	-9.11%
COc1ccc(-c2cc(C3(O)CCN(C)CC3)on2)cc1	-0.517%
Cc1ncc(CN2CCC(n3cc(-c4ccc(F)cc4)nn3)CC2)cn1	-2.17%
CCC1(C(=O)O)CCCN(CCOCc2ccccc2)C1 (configuration not stated)	-9.39%
Cc1cc(CNC(=O)CN2CCCC(Cn3cncn3)C2)ccc1F (configuration not stated)	3.75%
COCC(=O)N1CC(c2ccnc(Nc3cc(C(F)(F)F)ccn3)n2)C1	10.3%
CCc1ccc2occ(CC(=O)N3CCC4(CCCN(C)C4=O)C3)c2c1 (configuration not stated)	-9.34%
c1cnc(C2CCCN(Cc3ccsc3)C2)cn1 (configuration not stated)	-6.09%
Cc1ncc(CNC(=O)Nc2cc(C(F)(F)F)c[nH]c2=O)s1	0.0851%
OC(COCc1ccccc1F)CN1CCC(Cn2cccn2)CC1 (configuration not stated)	-0.0861%
COc1cc(C)nc(N2CCN(C(=O)c3ccoc3C)CC2)n1	-6.48%
CC(Cn1cccn1)NCCS(=O)(=O)c1ccccc1 (configuration not stated)	-8.75%
Cc1cc(C)c(CNC(=O)N2CCCC2c2ccccn2)c(=O)[nH]1 (configuration not stated)	-6.29%
Cc1cnn(CCNCc2nnc(-c3occc3C)o2)c1	-5.91%
c1cc(CN2CCC(CCn3cccn3)CC2)cc(Cn2cccn2)c1	-2.62%
Cc1ccc(C(O)CNCc2c(C(C)C)nn(C)c2N(C)C)cc1 (configuration not stated)	0.581%
CN(C)S(=O)(=O)c1ccc(=O)n(CC2CCCCO2)c1 (configuration not stated)	-12.9%
CCC(=O)N1CCC2(COCc3cnc(NCc4ccco4)nc32)C1 (configuration not stated)	0.523%
Cc1ccc(C(CNC(=O)c2c(C)noc2C(C)C)N(C)C)cc1 (configuration not stated)	-4.44%
CC(C)(C)SCCN1CC(=O)N2CC[C@@H](O)C[C@H]2C1=O	-9.74%

SMILES	cytotoxicity at 70.5 h
O=C(c1ccco1)N1CCO[C@@H]2CN(c3ccccn3)CC[C@@H]2C1	-4.86%
Cc1ccc(OCCC(=O)N2CCCC(n3nc(C)nc3C)C2)cc1 (configuration not stated)	-11.7%
CC(C)c1nc(C2CCCN2CCNS(C)(=O)=O)no1 (configuration not stated)	-19.2%
COC(=O)N1CCC(CNC(=O)C2CC2)CC1	-18.1%
CCCc1noc(CN2CCN(c3nccs3)CC2)n1	-6.87%
CN(CC1(CO)CCC1)c1nc2c(c(=O)[nH]1)Cc1ccccc1OC2	-10.8%
N#CCc1cccc(C(=O)N2CCN(CC(O)c3ccccc3)CC2)c1 (configuration not stated)	2.39%
O=C(Cc1ccc2c(c1)OCO2)N1CCN(c2ccncc2)CC1	-9.91%
CC(C)N(C(=O)c1ccccc1-c1nc2c([nH]1)CCNC2)C(C)C	5.55%
CN1C(=O)C2(CCN(CC3CCC3)C2)c2ccccc21 (configuration not stated)	9.83%
CC(C)c1nnc2n1CCN(Cc1ccc3c(c1)OCO3)CC2	-11.5%
COc1cccc2c1OCC(C(=O)N1CCC(N3CCSCC3)CC1)C2 (configuration not stated)	4.8%
CCc1ncc(CN2CCC(Oc3ccccc3OC)CC2)cn1	-0.00137%
Cc1nc(C2CCCN2Cc2ccon2)no1 (configuration not stated)	-5.54%
CCOc1ccc(Cl)c(C(=O)NC(C)C(N)=O)n1 (configuration not stated)	-5.7%
COc1cc(CN(C)C(=O)Nc2cc(C)on2)ccc1SC	-1.35%
CN(c1cccnc1N1CCCC1)S(=O)(=O)c1cccnc1	3.33%
CN(C(=O)c1ccc[nH]1)C1CC(=O)N(Cc2ccccc2)C1=O (configuration not stated)	-4.14%
Fc1cccc2ncnc(NCC3(N4CCOCC4)CCSC3)c12 (configuration not stated)	3.01%
